The record followed here is patent US20240216589A1, “DRUG DELIVERY COMPOSITIONS AND METHODS OF CONTROLLING DRUG DELIVERY RATES OF SUBCUTANEOUS SENSORS” (ABBOTT DIABETIS CARE INC., priority 2022, published 2024).

The series can be described thus: Dex solubility in the polyvinylpyridine-ethanol:water (95:5 by volume) solution. It counts as physicochemical. The protocol:
FIG. 33 illustrates the Dex solubility in the polyvinylpyridine-ethanol:water (95:5 by volume) solution according to certain embodiments of the present disclosure. The solubility of Dex in the PVP-ethanol:water solution was measured. For the solutions containing 0 wt %-30 wt % of Dex relative to the weight amount of PVP polymer, after the solutions were vortexed/sonicated within 15 minutes, the solutions became clear. […] Therefore, the drug delivery composition can include up to 40 wt % of Dex relative to the amount of copolymer to make a clear drug delivery composition.

In the case of `C[C@@H]1C[C@H]2[C@@H]3CCC4=CC(=O)C=C[C@]4(C)[C@@]3(F)[C@@H](O)C[C@]2(C)[C@@]1(O)C(=O)CO` [Dex, dexamethasone], the solution clarity result by setting is: (0 wt %-30 wt % of Dex relative to PVP, vortexed/sonicated within 15 minutes) “became clear”; (40 wt % of Dex relative to PVP, mixing overnight on the nutator) “became clear after mixing overnight”; (50 wt % of Dex relative to PVP, mixing overnight on the nutator) “did not become clear”. In addition, the “maximum Dex relative to the amount of copolymer to make a clear drug delivery composition” value (ethanol:water 95:5 by volume) was “up to 40 wt %”.
